# Measurements published in patent US11446338B2, “Food, cosmetic and pharmaceutical formulation with an immunomodulatory and protective anti-viral effect” (priority 2018, dated 2022).
# System: H1N1 influenza virus (California 2011)
# Experiment: Prevention of mortality in immunodeficient mice infected with H1N1 influenza virus
# Assay type: in vivo
# Conditions: cyclophosphamide-immunodeficient mice, oral 0.2 ml daily, 10 ED90/mouse intranasally
smiles,measurement,value
CC(N)C12CC3CC(CC(C3)C1)C2 (centres unmarked) [Rimantadine],"Percentage of surviving animals after experiment, %",50%
same,"The number of surviving animals after the experiment, n = 10",5
